Here are results for one molecule from publication PMC5047629, “Synthesis, Pharmacological Profile and Docking Studies of New Sulfonamides Designed as Phosphodiesterase-4 Inhibitors” (PLoS ONE, 2016).

The term inhibition denotes the share of the control response that was lost under treatment. The IC50 is the concentration at which inhibition is half-maximal.

One assay deals with T1, PDE4C (Homo sapiens, UniProt Q08493).
T1 construct: purchased MDS PHARMA
The experiment in a line: PDE4C inhibition, IMAP fluorescence polarization protocol. It counts as biochemical. As for the experimental part:
(§1) The enzymatic reactions were carried at room temperature in a 96-well black plate by co-incubating 25 μL of 200 nM FAM-cAMP (R7513), 5 μL of putative inhibitory compounds and 20 μL of the PDE4 isoform dissolved in assay buffer (R7364) for 1 h. All enzymes were obtained from human recombinant sources (MDS PHARMA), whereas the other reagents were purchased from Molecular Devices. […] PDE4 inhibitors were dissolved in dimethyl sulfoxide (DMSO) at a final concentration of 0.1%.
(§2) The inhibitory activities of the new sulfonamide derivatives were evaluated for their selectivity against the four isoforms of human PDE4, i.e. PDE4A, PDE4B, PDE4C, and PDE4D, using an IMAP-FP protocol.
In general terms: In fluorescence polarisation assays a small probe gives low polarisation when free and higher when bound to something large.

The subject of the next assay is PDEs5-11. The assay is described as follows: PDE selectivity profile evaluated by CEREP. Format: biochemical, human. The following applies: 10 μM; data not shown. As for the experimental part:
The selectivity profile of compound 6a (LASSBio-448) toward the human PDE1, PDE2, PDE5-PDE8, PDE10 and PDE11 was evaluated by CEREP.

The target of another assay is T2, PDE4B (Homo sapiens, UniProt Q07343).
T2 construct: purchased MDS PHARMA
The experiment in a line: PDE4B inhibition, IMAP fluorescence polarization protocol. It counts as biochemical. As for the experimental part:
as §1, §2

In a further assay the test system is guinea-pig trachea. The experiment in a line: Tracheal smooth muscle contraction in vitro induced by carbachol. The following applies: 100 μM, S1A Fig. As for the experimental part: Tracheas from guinea pigs were obtained and prepared as described previously. An initial tension of 1 g was applied to the tracheas for 60 min to obtain a constant resting tension. To confirm the viability of the preparation, the response to carbachol (2.5 μM) was recorded. After washout of carbachol and re-establishement of the baseline resting tension, tissues were preincubated with LASSBio-448 (100 μM) or vehicle (DMSO 0.1%) 15 min before re-exposed to cumulative addition of carbachol (10^−8–10^−4 M). The tracheal rings were pretreated 10 min before application of LASSBio-448 with 100 μM SQ22536 (adenylyl cyclase inhibitor). Stimulation-induced isometric contractile responses were measured with a force-displacement transducer (Ugo Basile, Comerio, Italy) and the readout used to assess contractility was obtained by isolated organ data acquisition software (Proto 5; Letica Scientific Instruments, Barcelona, Spain). Contractile responses were expressed as a percentage of the maximal contraction induced by 2.5 μM carbachol.

In the next assay the test system is PDE3. The assay is described as follows: PDE3 activity inhibition. Format: biochemical. The following applies: 10 μM.
The next assay relates to A/J mice. The assay is described as follows: LPS-induced lung inflammation and airway hyper-reactivity. The conditions noted are these: LASSBio-448 2.5 and 10 mg/kg oral, cilomilast 1 mg/kg oral, 1 h before LPS, 24 h post-challenge. It counts as in vivo. As for the experimental part:
A/J mice were anesthetized with isoflurane aerosol and then challenged with LPS (25μg/25 μL) or phosphate buffered solution (PBS) by intranasal instillation as reported. The analyses were performed 24 h after stimulation. Treatment with LASSBio-448 (2.5–10 mg/kg/mice) or cilomilast (1 mg/kg) was performed orally, 1 h before LPS exposure. LASSBio-448 was dissolved in 0.2% Tween 80, while cilomilast was dissolved in 1 M NaOH and further neutralized with 1 N HCl, before adjusting the final volume with 0.9% NaCl solution (saline). The substances were dissolved immediately before use.
Airflow and transpulmonary pressure were recorded with a Buxco pulmonary mechanics processing system (Buxco Electronics, Sharon, CT), which calculated resistance (cmH2O.s/ml) and dynamic lung compliance (mL/cmH2O) in each breath cycle. Elastance was calculated as the inverse of compliance values. Mice were anesthetized with nembutal (60 mg/kg), and the neuromuscular activity was blocked with bromide pancuronium (1 mg/kg). Animals were allowed to stabilize for 5 min and increasing concentrations of methacholine (3–27 mg/mL) were aerosolized for 5 min each. Baseline pulmonary parameters were assessed with aerosolized phosphate buffer solution (PBS).
The MPO activity present in the lung tissue was colorimetrically determined as described by Hirano (1996), with minor changes. Briefly, after lung perfusion with 20 mM EDTA in 0.9% saline, lung samples were homogenized in Hank´s balanced solution (HBSS) at pH 7.4. The homogenates were centrifuged for 10 min at 1300 xg and 4°C. Red blood cells were removed by hypotonic and hypertonic lysis and suspended cells were re-centrifuged as described above. The pellet was then suspended in HBSS at pH 7.4 containing 0.5% hexadecyltrimethyl ammonium bromide (HTAB). The homogenates were centrifuged for 30 min at 12500 xg and 4°C. The supernatants were then collected and incubated with 0.167 mg/mL of ortho-dianisidine dihydrochloride for 15 min at 37°C, after which 0.0006% H2O2 in 50 mM phosphate buffer at pH 6 was added. The reaction was stopped 10 min later by adding 50 μL of 1% sodium azide. The measurement was done at 460 nm using the SpectraMax M5 microplate reader (Molecular Devices).

Setting [1] is: 1 μM, mean ± SEM, 3 experiments.
Where [2] appears, read: recombinant enzyme, mean ± SEM of three measurements.

T1 sequence (Q08493 whole entry): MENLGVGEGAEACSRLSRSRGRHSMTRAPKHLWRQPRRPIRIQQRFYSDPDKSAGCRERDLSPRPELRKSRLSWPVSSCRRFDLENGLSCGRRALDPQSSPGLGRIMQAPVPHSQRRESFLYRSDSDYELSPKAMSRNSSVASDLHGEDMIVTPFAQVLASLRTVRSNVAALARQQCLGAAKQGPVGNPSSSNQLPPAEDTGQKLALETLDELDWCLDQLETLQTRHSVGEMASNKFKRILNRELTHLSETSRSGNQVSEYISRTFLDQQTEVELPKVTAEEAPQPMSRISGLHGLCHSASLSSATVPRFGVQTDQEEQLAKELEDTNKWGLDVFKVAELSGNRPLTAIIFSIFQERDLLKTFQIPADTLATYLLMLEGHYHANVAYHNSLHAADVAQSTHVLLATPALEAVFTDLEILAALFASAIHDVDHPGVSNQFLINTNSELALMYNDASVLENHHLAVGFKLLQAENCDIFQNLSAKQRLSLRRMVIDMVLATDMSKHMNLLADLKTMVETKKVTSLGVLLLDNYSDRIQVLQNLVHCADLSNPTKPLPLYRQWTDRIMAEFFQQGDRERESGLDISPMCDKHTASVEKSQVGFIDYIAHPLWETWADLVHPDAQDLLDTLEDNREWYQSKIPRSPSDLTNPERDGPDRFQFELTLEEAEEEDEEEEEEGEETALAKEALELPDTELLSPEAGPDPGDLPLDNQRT
T2 sequence (Q07343 whole entry): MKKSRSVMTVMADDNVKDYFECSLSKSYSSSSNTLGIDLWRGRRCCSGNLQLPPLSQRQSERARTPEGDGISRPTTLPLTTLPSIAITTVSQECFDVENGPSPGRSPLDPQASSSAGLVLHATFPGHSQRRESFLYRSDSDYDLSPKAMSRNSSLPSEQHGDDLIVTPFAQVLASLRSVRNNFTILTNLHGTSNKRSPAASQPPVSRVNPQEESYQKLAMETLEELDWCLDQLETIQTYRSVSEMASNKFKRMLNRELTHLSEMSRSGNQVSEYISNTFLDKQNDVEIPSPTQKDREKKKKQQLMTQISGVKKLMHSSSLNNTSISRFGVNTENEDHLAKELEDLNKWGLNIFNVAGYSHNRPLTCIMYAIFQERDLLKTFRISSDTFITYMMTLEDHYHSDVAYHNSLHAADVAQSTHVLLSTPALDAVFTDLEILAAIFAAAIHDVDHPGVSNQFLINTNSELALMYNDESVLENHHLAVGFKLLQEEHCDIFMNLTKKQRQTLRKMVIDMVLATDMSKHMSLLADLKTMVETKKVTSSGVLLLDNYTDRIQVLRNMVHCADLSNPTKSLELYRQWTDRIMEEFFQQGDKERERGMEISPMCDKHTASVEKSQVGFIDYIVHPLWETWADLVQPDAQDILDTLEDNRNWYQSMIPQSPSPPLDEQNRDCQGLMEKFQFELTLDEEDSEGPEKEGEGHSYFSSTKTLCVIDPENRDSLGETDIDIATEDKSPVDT

For `COc1ccc(CCNS(=O)(=O)c2cc3c(cc2C)OCO3)cc1OC` [6a (LASSBio-448), N-(3,4-dimethoxyphenethyl)-6-methylbenzo[d][1, 3]dioxole-5-sulfonamide], the PDE4C inhibition result at PDE4C (setting [1]) is “able to inhibit”. The inhibition at 1 µM worked out at 33.7 ± 0.4% on PDE4C (setting [1]) and 31 ± 1.1% on PDE4B (1 μM, mean ± SEM, 3 experiments, read-out: PDE4B1 inhibition). The IC50 was determined as 1100 ± 130 nM at PDE4C (setting [2]) and 1400 ± 90 nM at PDE4B (setting [2]). The “inhibition of PDEs5-11” value in the assay with PDEs5-11 is “unable to inhibit”. For the same molecule, at PDE4B (setting [1]), the PDE4B1 inhibition entry was “able to inhibit”. In addition, the “tracheal contraction induced by cumulative carbachol” value in the assay on guinea-pig trachea is given as “inhibited”. In the assay on guinea-pig trachea (pre-treatment with 100 μM SQ22,536 (adenylyl cyclase inhibitor)), the “relaxant effect after pre-treatment with SQ22,536” value is on record as “clearly abrogated”. Moreover, the “inhibition of PDE3 activity” value in the assay on PDE3 is “failed to inhibit”. Besides, the “LPS-induced airway hyper-reactivity (lung elastance after methacholine 3–27 mg/ml)” value in the assay with A/J mice (Fig 9A) is “dose-dependently prevented”. Also, the “neutrophil infiltration into the lung tissue (MPO activity)” value in the assay with A/J mice (Fig 9B) is recorded as “marked reduction”.
